Source: ChEMBL document CHEMBL4393707, “Synthesis and evaluation of new quinazolin-4(3H)-one derivatives as potent antibacterial agents against multidrug resistant Staphylococcus aureus and Mycobacterium tuberculosis” (Eur J Med Chem, 2019)
In brackets after ≈: the same amount, converted by molar mass.

Legend:
Assay type in all cases: functional
Escherichia coli = assay: Antibacterial activity against Escherichia coli ATCC 25922 incubated for 16 to 18 hrs by broth microdilution assay
[1] = system: Mycobacterium tuberculosis; assay: Antitubercular activity against Mycobacterium tuberculosis H37Rv after 7 days by resazurin dye based assay; settings: 168 h
Acinetobacter baumannii = assay: Antibacterial activity against Acinetobacter baumannii BAA1605 incubated for 16 to 18 hrs by broth microdilution assay
Staphylococcus aureus = assay: Antibacterial activity against Staphylococcus aureus ATCC 29213 incubated for 16 to 18 hrs by broth microdilution assay
Klebsiella pneumoniae = assay: Antibacterial activity against Klebsiella pneumoniae ATCC BAA-1705 incubated for 16 to 18 hrs by broth microdilution assay
Pseudomonas aeruginosa = assay: Antibacterial activity against Pseudomonas aeruginosa ATCC 27853 incubated for 16 to 18 hrs by broth microdilution assay

| Structure (SMILES) | MIC (Escherichia coli) [µg/mL] | MIC [1] [µg/mL] | MIC (Acinetobacter baumannii) [µg/mL] | MIC (Staphylococcus aureus) [µg/mL] | MIC (Klebsiella pneumoniae) [µg/mL] | MIC (Pseudomonas aeruginosa) [µg/mL] |
| --- | --- | --- | --- | --- | --- | --- |
| COc1ccc(-c2cn(-c3ccc4c(=O)n(-c5ccccc5)c(/C=C/c5ccc(C#N)cc5)nc4c3)nn2)cc1 | > 64 | > 64 | > 64 | > 64 | > 64 | > 64 |
| C#Cc1cccc(-n2c(/C=C/c3ccc(C#N)cc3)nc3ncccc3c2=O)c1 | > 64 | > 64 | > 64 | > 64 | > 64 | > 64 |
| COc1ccc(-c2ccc3nc(C)n(-c4ccccc4)c(=O)c3c2)cc1 | > 64 | > 64 | > 64 | 32 (≈ 93.5 µM) | > 64 | > 64 |
| N#Cc1ccc(/C=C/c2nc3ncccc3c(=O)n2-c2cccc(O)c2)cc1 | > 64 | > 64 | > 64 | > 64 | > 64 | > 64 |
| COc1ccc(-c2cn(-c3ccc4c(=O)n(-c5ccccc5)c(C)nc4c3)nn2)cc1 | > 64 | 64 (≈ 156 µM) | > 64 | > 64 | > 64 | > 64 |
| N#Cc1ccc(/C=C/c2nc3ccc(OCc4cn(-c5ccc(F)c(Cl)c5)nn4)cc3c(=O)n2Cc2ccccc2)cc1 | > 64 | > 64 | > 64 | > 64 | > 64 | > 64 |
| Cc1nc2ccc(-c3ccc(F)cc3)cc2c(=O)n1-c1cccc(Cl)c1 | > 64 | > 64 | > 64 | > 64 | > 64 | > 64 |
| N#Cc1ccc(/C=C/c2nc3ccccc3c(=O)n2-c2cccnc2)cc1 | > 64 | > 64 | > 64 | 64 (≈ 183 µM) | > 64 | > 64 |
| CC(C)(C)c1ccc(-n2c(/C=C/c3ccc(C#N)cc3)nc3ncccc3c2=O)cc1 | > 64 | > 64 | > 64 | > 64 | > 64 | > 64 |
| COc1ccc(-c2ccc3nc(/C=C/c4ccccc4)n(-c4ccccc4)c(=O)c3c2)cc1 | > 64 | 64 (≈ 149 µM) | > 64 | > 64 | > 64 | > 64 |
| COC(=O)Cn1c(/C=C/c2ccc(C#N)cc2)nc2ccc(OCc3cn(-c4ccc(F)c(Cl)c4)nn3)cc2c1=O | > 64 | > 64 | > 64 | > 64 | > 64 | > 64 |
| Cc1nc2ccc(OCc3cn(-c4ccc(Cl)cc4)nn3)cc2c(=O)n1Cc1ccccc1 | > 64 | > 64 | > 64 | > 64 | > 64 | > 64 |
| C=CCOc1cccc(-n2c(/C=C/c3ccc(C#N)cc3)nc3cccc(F)c3c2=O)c1 | > 64 | > 64 | > 64 | 64 (≈ 151 µM) | > 64 | > 64 |
| Cc1ccc(-c2cn(-c3ccc4c(=O)n(-c5ccccc5)c(C)nc4c3)nn2)cc1 | > 64 | > 64 | > 64 | > 64 | > 64 | > 64 |
| COc1ccc(-c2ccc3c(=O)n(-c4cccc(Cl)c4)c(C)nc3c2)cc1 | > 64 | > 64 | > 64 | > 64 | > 64 | > 64 |
| N#Cc1ccc(/C=C/c2nc3ccccc3c(=O)n2Cc2ccc(Cl)c(Cl)c2)cc1 | > 64 | > 64 | > 64 | > 64 | > 64 | > 64 |
| COC(=O)Cn1c(/C=C/c2ccc(C#N)cc2)nc2ccccc2c1=O | > 64 | > 64 | > 64 | > 64 | > 64 | > 64 |
